Where two headings read alike, the source gives them in different places.
System: ADP-induced aggregation of washed platelets
Assay: Inhibition of ADP-induced aggregation of washed platelets
Type: cell-based
Conditions: human washed platelets, light transmission aggregometry, 2 min pre-incubation with inhibitor before ADP, read-out: IC50 as inhibitors of ADP-induced aggregation of washed platelets
Description: Isolation of platelets: Human blood is obtained from informed healthy adult volunteers. Blood is collected into one-sixth volume of acid/citrate/dextrose (ACD) buffer (85 mM sodium citrate, 65 mM citric acid, and 110 mM glucose). Collected blood is placed in a water bath at 37° C. for 30 minutes. Blood is then centrifuged at 275×g for 16 minutes at room temperature and the platelet-rich plasma is removed and centrifuged at 2200×g for 13 minutes at room temperature. […]
Aggregation Studies: ADP-induced platelet aggregation is determined by measuring the transmission of light through a 0.5 ml suspension of stirred (1000 rpm) washed platelets in a lumi-aggregometer at 37° C. […] Platelet aggregation is initiated by the addition of indicated concentrations of ADP or other agonists, and the light transmission is continuously recorded for at least 8 min. When inhibitors of platelet aggregation are tested, platelets are incubated for 2 min in the presence of indicated concentrations of inhibitor before addition of ADP or other agonists, and the response is recorded for at least 8 min. The potency of agonists and inhibitors of platelet aggregation is calculated from both the rate of aggregation and the maximal extent of aggregation obtained for each determination by fitting the data to a four-parameter logistic equation using the GraphPad software package (GraphPad Corp. San Diego, Calif.). […]

| SMILES | IC50 [µM] | IC50 (Platelet) [µM] |
| --- | --- | --- |
| CCNC(=O)Nc1ccn(C2OC(COCc3c(F)cccc3C(=O)O)C3OC(/C=C/c4ccccc4)OC32)c(=O)n1 (stereo not drawn) [Compound 2, 2′,3′-trans-cinnamylacetal-5′-(2-carboxy-6-fluoro)benzyloxy-6-N-ethylurea cytidine] | 1.3 | – |
| CCNC(=O)Nc1ccn([C@@H]2O[C@H](COCc3ccccc3C(=O)O)C3O[C@H](/C=C/c4ccccc4)O[C@@H]32)c(=O)n1 (stereo partly drawn) [Compound 1, 2′,3′-trans-cinnamylacetal-5′-(2-carboxy)benzyloxy-6-N-ethylurea cytidine] | – | 23.5 |

— patent US7932376B2, “Pyrimidine-based non-nucleotide composition and method for inhibiting platelet aggregation” (Inspire Pharmaceuticals, Inc., priority 2005, dated 2011)
